Laboratory results as given in patent US4241052A, “Novel nitrosourea compounds and process for preparing the same” (Tanabe Seiyaku Co., Ltd., priority 1978, dated 1980).

What was measured:
[1] = system: tumor cells of lymphoid leukemia L-1210; conditions: tumor cells implanted intraperitoneally; U.S. Pat. No. 4086451 and Japanese publications; cited from earlier work
Leukemia L-1210 = assay: Effect on life span of mice implanted with leukemic cells of L-1210 (Method B); assay type: in vivo, mice (BDF1, male); conditions: 5 days
Method: (B) Effect on the life span of mice implanted with leukemic cells of L-1210
10^5 leukemic cells of L-1210 were inoculated intraperitoneally into a group of four male mice (BDF1 mice, body weight: 19-23 g). A test compound was dissolved in a physiological saline solution and administered intraperitoneally to the mice. The administration of the test compound was began 24 hours after the inoculation of the leukemic cells and performed once a day for 5 days. The survival days of the treated mice were observed.

[2] = system: Ehrlich ascites carcinoma; assay: Preventive effect against the growth of Ehrlich ascites carcinoma (Method A); assay type: in vivo, mice (ICR, female); conditions: for inhibition in vivo at 0.39 mg/kg: 0.39 mg/kg/day i.p.; for inhibition in vivo at 0.78 mg/kg: 0.78 mg/kg/day i.p.; for inhibition in vivo at 1.56 mg/kg: 1.56 mg/kg/day i.p.; for inhibition in vivo at 6.25 mg/kg: 6.25 mg/kg/day i.p.; for inhibition in vivo at 25 mg/kg: 25 mg/kg/day i.p.; for inhibition in vivo at 100 mg/kg: 100 mg/kg/day i.p.; for inhibition in vivo at 400 mg/kg: 400 mg/kg/day i.p.; for minimal effective dose: 168 h, min dose, 100% inhibition, doses of the table in mg/kg/day, read-out: MED (Minimum Effective Dose); for inhibition in vivo at 0.19 mg/kg: 0.19 mg/kg/day i.p.
Method: (§1) (A) Preventive effect against the growth of Ehrlich ascites tumor
(§2) 10^6 tumor cells of Ehrlich ascites carcinoma were inoculated intraperitoneally into a group of five femal mice (ICR mice, body weight: 19-23 g). A test compound was dissolved in a physiological saline solution and administered intraperitoneally to the mice. The administration of the test compound was began 24 hours after the inoculation of the tumor cells and performed once a day for 5 days. The volume of ascites in the treated mice were measured after 7 days of the experiment.

[3] = as above; assay type: in vivo, mice (ICR, female); conditions: mouse, in vivo, ip; max dose, 100% inhibition without death; doses of the table in mg/kg/day; read-out: MTD (Maximum Tolerated Dose)
Method: as §1, §2

[4] = Mus musculus, Ehrlich, ip, 120 h, 5 days, read-out: Inhibition ratio

Row | Structure (SMILES) | 60-day survivors (mice survived/mice used) (Leukemia L-1210; 25 mg/kg/day i.p.) | ILS (Leukemia L-1210; 25 mg/kg/day i.p.) [%] | 60-day survivors (mice survived/mice used) (Leukemia L-1210; 100 mg/kg/day i.p.) | ILS (Leukemia L-1210; 100 mg/kg/day i.p.) [%] | 60-day survivors (mice survived/mice used) (Leukemia L-1210; 200 mg/kg/day i.p.) | ILS (Leukemia L-1210; 200 mg/kg/day i.p.) [%] | Toxic (number of mice died/number of mice used) ([2]; 800 mg/kg/day i.p., 5 days) | Therapeutic index (MTD/MED) [2] | inhibition in vivo at 0.39 mg/kg [2, 4] [%] | inhibition in vivo at 0.78 mg/kg [2, 4] [%] | inhibition in vivo at 1.56 mg/kg [2, 4] [%] | inhibition in vivo at 6.25 mg/kg [2, 4] [%] | inhibition in vivo at 25 mg/kg [2, 4] [%] | inhibition in vivo at 100 mg/kg [2, 4] [%] | inhibition in vivo at 400 mg/kg [2, 4] [%] | minimal effective dose ([2]; Mus musculus, Ehrlich, ip) [mg/kg/day] | MTD at 168 h [3] [mg/kg/day] | 60-day survivors (mice survived/mice used) (Leukemia L-1210; 6.25 mg/kg/day i.p.) | ILS (Leukemia L-1210; 6.25 mg/kg/day i.p.) [%] | Toxic (number of mice died/number of mice used) ([2]; 200 mg/kg/day i.p., 5 days) | further results
1 | O=NN(CCCl)C(=O)NC1O[C@H](CO)[C@@H](O)[C@H](O)[C@@H]1O (stereo partly drawn) [1-(2-chloroethyl)-1-nitroso-3-(D-mannopyranosyl)urea] |  |  |  |  |  |  |  |  |  |  |  |  |  |  |  |  |  |  |  |  | life span of mice implanted with L-1210 [1]: increase the life span
2 | O=NN(CCCl)C(=O)N(Cc1ccccc1)C1O[C@H](CO)[C@@H](O[C@H]2O[C@H](CO)[C@@H](O)[C@H](O)[C@H]2O)[C@H](O)[C@H]1O (stereo partly drawn) [Compound 1, 1-(2-chloroethyl)-1-nitroso-3-benzyl-3-[O-α-D-glucopyranosyl-(1→4)-D-glucopyranosyl]urea] | 0/4 | 55.2 | 1/4 | > 236.8 | 4/4 | > 589.7 | 5/5 | 256 | 9.3 | 66.7 | 100 | 100 | 100 | 100 | 100 | 1.56 | 400 |  |  |  | 
3 | COc1ccc(CN(C(=O)N(CCCl)N=O)C2O[C@H](CO)[C@@H](O[C@H]3O[C@H](CO)[C@@H](O)[C@H](O)[C@H]3O)[C@H](O)[C@H]2O)cc1 (stereo partly drawn) [Compound 3, 1-(2-chloroethyl)-1-nitroso-3-(p-methoxybenzyl)-3-[O-α-D-glucopyranosyl-(1→4)-D-glucopyranosyl]urea] | 0/4 | 50.7 |  |  | 2/4 | > 328.8 | 5/5 | 256 |  | 23.1 | 100 | 100 | 100 | 100 | 100 | 1.56 | 400 |  |  |  | 60-day survivors (mice survived/mice used) (Leukemia L-1210; 400 mg/kg/day i.p.): 4/4; ILS (Leukemia L-1210; 400 mg/kg/day i.p.): > 721.9%
4 | O=NN(CCCl)C(=O)N(Cc1ccco1)C1O[C@H](CO)[C@@H](O[C@H]2O[C@H](CO)[C@@H](O)[C@H](O)[C@H]2O)[C@H](O)[C@H]1O (stereo partly drawn) [Compound 6, 1-(2-chloroethyl)-1-nitroso-3-furfuryl-3-[O-α-D-glucopyranosyl-(1→4)-D-glucopyranosyl]urea] | 0/4 | 65.3 | 2/4 | > 351.4 | 4/4 | > 733.3 | 5/5 | 128 |  | 21.6 | 76.5 | 100 | 100 | 100 | 100 | 3.12 | 400 |  |  |  | inhibition in vivo at 3.12 mg/kg ([2]; Mus musculus, Ehrlich, ip, 120 h, 3.12 mg/kg/day i.p., 5 days, read-out: Inhibition ratio): 100%
5 | O=NN(CCCl)C(=O)N(CC1CC1)C1O[C@H](CO)[C@H](O)[C@H](O)[C@H]1O (stereo partly drawn) [Compound 8, 1-(2-chloroethyl)-1-nitroso-3-cyclopropylmethyl-3-(D-galactopyranosyl)urea] | 4/4 | > 650.0 |  |  |  |  |  | 128 | 21.1 | 100 | 100 | 100 | 100 | 100 |  | 0.78 | 100 | 0/4 | 53.8 | 3/5 | 60-day survivors (mice survived/mice used) (Leukemia L-1210; 50 mg/kg/day i.p.): 4/4; ILS (Leukemia L-1210; 50 mg/kg/day i.p.): > 650.0%
6 | O=NN(CCCl)C(=O)N(CC1CCCO1)C1O[C@H](CO)[C@H](O)[C@H](O)[C@H]1O (stereo partly drawn) [Compound 9, 1-(2-chloroethyl)-1-nitroso-3-tetrahydrofurfuryl-3-(D-galactopyranosyl)urea] | 4/4 | > 689.5 | 4/4 | > 689.5 |  |  |  | 64 | 6.2 | 37.5 | 100 | 100 | 100 | 100 |  | 1.56 | 100 | 0/4 | 55.3 | 5/5 | 
7 | O=NN(CCCl)C(=O)N(CC1CC1)C1OC[C@H](O)[C@H](O)[C@H]1O (stereo partly drawn) [Compound 10, 1-(2-chloroethyl)-1-nitroso-3-cyclopropylmethyl-3-(L-arabinopyranosyl)urea] | 4/4 | > 721.9 |  |  |  |  |  | 128 | 79.5 | 100 | 100 | 100 | 100 | 100 |  | 0.78 | 100 | 0/4 | 82.2 | 5/5 | 60-day survivors (mice survived/mice used) (Leukemia L-1210; 50 mg/kg/day i.p.): 4/4; ILS (Leukemia L-1210; 50 mg/kg/day i.p.): > 721.9%; inhibition in vivo at 0.19 mg/kg [2, 4]: 17.9%
8 | O=NN(CCCl)C(=O)N(Cc1cccs1)C1OC[C@H](O)[C@H](O)[C@H]1O (stereo partly drawn) [Compound 13, 1-(2-chloroethyl)-1-nitroso-3-(thiophen-2-yl-methyl)-3-(L-arabinopyranosyl)urea] | 2/4 | > 442.9 |  |  |  |  |  | 128 | 54 | 100 | 100 | 100 | 100 | 100 |  | 0.78 | 100 |  |  | 5/5 | 60-day survivors (mice survived/mice used) (Leukemia L-1210; 12.5 mg/kg/day i.p.): 0/4; ILS (Leukemia L-1210; 12.5 mg/kg/day i.p.): 121.4%; 60-day survivors (mice survived/mice used) (Leukemia L-1210; 50 mg/kg/day i.p.): 2/4; ILS (Leukemia L-1210; 50 mg/kg/day i.p.): > 414.3%; inhibition in vivo at 0.19 mg/kg [2, 4]: 18%
